In ChEMBL document CHEMBL5291721, “A preclinical secondary pharmacology resource illuminates target-adverse drug reaction associations of marketed drugs” (Nat Commun, 2023):

How the values were obtained:
[1] = target: T1, Alpha-2B adrenergic receptor (Homo sapiens, UniProt P18089)
T1 sequence (P18089 whole entry): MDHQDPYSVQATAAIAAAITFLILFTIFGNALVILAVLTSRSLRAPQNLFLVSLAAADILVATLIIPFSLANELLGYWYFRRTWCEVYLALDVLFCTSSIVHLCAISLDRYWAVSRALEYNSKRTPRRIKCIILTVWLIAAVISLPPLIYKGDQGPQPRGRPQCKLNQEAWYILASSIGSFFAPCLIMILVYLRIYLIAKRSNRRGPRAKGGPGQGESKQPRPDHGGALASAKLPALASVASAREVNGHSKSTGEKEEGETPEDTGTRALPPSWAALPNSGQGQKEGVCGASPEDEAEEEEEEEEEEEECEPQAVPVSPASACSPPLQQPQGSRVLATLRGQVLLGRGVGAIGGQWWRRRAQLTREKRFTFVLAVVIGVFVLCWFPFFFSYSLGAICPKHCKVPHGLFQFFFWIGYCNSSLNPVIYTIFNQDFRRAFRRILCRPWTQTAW

[2] = target: Cannabinoid receptor 1 (Homo sapiens, UniProt P21554)
Cannabinoid receptor 1, sequence (P21554 whole entry): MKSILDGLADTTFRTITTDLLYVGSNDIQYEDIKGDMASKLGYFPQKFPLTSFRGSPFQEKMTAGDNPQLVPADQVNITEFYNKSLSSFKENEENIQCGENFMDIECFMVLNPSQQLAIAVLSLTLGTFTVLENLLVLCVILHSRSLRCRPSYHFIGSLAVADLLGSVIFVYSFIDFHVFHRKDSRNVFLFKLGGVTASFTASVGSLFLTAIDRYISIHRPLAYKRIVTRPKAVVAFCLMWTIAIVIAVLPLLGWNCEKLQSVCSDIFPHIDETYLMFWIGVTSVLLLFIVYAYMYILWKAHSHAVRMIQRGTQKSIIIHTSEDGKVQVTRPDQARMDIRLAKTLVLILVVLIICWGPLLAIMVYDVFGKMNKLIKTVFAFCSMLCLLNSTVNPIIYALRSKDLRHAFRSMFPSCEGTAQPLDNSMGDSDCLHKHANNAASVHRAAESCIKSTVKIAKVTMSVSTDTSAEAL

[3] = target: Growth hormone secretagogue receptor type 1 (Homo sapiens, UniProt Q92847)
Growth hormone secretagogue receptor type 1, sequence (Q92847 whole entry): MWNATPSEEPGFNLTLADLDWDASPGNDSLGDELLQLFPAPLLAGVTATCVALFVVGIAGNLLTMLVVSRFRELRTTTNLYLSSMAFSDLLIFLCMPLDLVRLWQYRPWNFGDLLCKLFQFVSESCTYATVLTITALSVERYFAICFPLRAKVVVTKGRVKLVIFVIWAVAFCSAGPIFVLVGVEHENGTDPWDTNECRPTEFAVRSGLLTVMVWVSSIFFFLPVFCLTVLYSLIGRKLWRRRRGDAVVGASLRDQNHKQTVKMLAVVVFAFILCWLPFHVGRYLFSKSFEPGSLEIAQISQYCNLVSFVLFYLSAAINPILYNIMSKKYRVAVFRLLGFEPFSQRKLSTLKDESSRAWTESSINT

[4] = target: T2, Neuropeptide Y receptor type 1 (Homo sapiens, UniProt P25929)
T2 sequence (P25929 whole entry): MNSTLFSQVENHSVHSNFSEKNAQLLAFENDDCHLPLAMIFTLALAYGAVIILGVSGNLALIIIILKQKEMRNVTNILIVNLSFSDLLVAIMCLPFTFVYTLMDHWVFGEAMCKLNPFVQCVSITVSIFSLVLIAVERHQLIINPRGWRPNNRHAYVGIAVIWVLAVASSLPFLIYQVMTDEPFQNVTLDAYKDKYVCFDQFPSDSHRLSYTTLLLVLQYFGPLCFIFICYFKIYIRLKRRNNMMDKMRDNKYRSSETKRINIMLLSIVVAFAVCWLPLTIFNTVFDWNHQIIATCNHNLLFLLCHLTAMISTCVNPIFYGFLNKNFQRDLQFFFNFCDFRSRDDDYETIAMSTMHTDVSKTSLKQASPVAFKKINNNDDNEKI

[5] = target: T3, Progesterone receptor (Homo sapiens, UniProt P06401); type: functional
T3 sequence (P06401 whole entry): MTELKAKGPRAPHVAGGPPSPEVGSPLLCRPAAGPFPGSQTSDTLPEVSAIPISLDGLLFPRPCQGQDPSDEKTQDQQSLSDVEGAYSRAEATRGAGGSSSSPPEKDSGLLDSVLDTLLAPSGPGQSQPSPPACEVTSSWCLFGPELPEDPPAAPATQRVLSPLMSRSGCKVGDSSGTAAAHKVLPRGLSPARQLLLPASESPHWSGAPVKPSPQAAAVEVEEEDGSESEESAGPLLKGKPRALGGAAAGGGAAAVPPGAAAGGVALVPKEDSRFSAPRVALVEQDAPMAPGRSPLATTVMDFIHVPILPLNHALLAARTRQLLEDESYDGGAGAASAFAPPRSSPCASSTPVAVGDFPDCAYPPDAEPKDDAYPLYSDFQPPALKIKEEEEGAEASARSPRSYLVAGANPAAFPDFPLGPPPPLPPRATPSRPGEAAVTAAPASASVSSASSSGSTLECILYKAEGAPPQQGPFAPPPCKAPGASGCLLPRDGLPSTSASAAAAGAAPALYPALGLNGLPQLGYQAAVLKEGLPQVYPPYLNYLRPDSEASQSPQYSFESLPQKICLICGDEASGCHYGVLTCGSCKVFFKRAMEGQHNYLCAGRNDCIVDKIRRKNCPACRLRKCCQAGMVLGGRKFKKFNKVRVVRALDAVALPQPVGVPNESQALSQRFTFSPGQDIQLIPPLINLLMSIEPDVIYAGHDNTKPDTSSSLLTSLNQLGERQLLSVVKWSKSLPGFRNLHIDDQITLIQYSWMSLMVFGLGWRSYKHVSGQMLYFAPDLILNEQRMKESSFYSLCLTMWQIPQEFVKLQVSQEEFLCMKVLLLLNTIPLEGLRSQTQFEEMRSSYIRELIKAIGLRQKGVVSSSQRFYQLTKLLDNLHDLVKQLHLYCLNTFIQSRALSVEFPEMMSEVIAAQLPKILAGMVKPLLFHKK

[6] = target: T4, Equilibrative nucleoside transporter 1 (Homo sapiens, UniProt Q99808)
T4 sequence (Q99808 whole entry): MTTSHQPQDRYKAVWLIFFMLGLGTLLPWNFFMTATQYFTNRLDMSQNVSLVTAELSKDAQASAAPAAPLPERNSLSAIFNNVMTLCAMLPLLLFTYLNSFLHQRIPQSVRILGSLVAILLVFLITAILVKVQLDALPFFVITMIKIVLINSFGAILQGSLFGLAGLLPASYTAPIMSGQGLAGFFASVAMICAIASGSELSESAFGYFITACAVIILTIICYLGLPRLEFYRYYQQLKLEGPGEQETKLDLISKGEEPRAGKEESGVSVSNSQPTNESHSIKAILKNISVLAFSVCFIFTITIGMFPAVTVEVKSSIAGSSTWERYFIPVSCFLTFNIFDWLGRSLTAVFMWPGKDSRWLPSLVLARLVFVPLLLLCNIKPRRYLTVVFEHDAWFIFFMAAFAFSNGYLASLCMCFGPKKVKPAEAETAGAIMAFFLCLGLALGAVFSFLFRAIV

[7] = target: T5, Thromboxane A2 receptor (Homo sapiens, UniProt P21731)
T5 sequence (P21731 whole entry): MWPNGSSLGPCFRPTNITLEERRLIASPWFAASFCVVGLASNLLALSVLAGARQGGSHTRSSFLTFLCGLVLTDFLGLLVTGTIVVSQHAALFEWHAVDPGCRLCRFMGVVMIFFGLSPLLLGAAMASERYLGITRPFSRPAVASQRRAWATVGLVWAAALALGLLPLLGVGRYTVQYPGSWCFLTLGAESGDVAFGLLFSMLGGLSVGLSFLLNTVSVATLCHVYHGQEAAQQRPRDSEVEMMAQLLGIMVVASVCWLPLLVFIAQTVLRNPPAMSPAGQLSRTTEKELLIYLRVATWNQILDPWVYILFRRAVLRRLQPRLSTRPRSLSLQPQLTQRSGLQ

[8] = target: Beta-2 adrenergic receptor (Homo sapiens, UniProt P07550); type: functional, cell-based
Beta-2 adrenergic receptor, sequence (P07550 whole entry): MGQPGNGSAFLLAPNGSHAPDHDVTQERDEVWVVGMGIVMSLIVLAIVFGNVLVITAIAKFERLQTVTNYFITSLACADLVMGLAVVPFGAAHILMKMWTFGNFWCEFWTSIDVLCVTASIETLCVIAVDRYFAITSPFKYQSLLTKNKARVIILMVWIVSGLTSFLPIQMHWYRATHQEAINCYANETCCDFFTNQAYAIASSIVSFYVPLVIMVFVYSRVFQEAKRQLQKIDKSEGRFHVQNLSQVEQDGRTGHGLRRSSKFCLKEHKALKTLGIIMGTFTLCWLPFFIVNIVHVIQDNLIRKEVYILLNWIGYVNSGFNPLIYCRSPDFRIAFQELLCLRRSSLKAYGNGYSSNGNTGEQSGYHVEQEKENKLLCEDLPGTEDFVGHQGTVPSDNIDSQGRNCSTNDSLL
Further: assay procedure not described here.

SMILES | AC50 [1] | AC50 [2] | AC50 [3] | AC50 [4] | AC50 [5] | AC50 [6] | AC50 [7] | AC50 [8]
O=C1C(O)=C([C@H]2CC[C@H](c3ccc(Cl)cc3)CC2)C(=O)c2ccccc21 [ATOVAQUONE] | > 30 µM | > 30 µM | > 30 µM | > 30 µM | > 30 µM | > 30 µM | > 30 µM | 
COc1ccc(CCNCC(O)COc2cccc(C)c2)cc1OC (configuration not stated) [BEVANTOLOL] | > 10 µM | > 10 µM | > 10 µM | > 10 µM | > 10 µM | > 30 µM | > 10 µM | 
Brc1c(NC2=NCCN2)ccc2nccnc12 [BRIMONIDINE] |  |  | > 30 µM | > 30 µM | > 30 µM | > 30 µM |  | > 30 µM
CC(CC1c2ccccc2CCc2ccccc21)CN(C)C (configuration not stated) [BUTRIPTYLINE] | 5 µM |  |  |  |  |  |  | > 30 µM
CC(C)(C)NCC(O)COc1cccc2c1CCC(=O)N2 (configuration not stated) [CARTEOLOL] | > 10 µM |  | > 10 µM | > 10 µM | > 10 µM | > 10 µM | > 10 µM | 
Nc1nc(Cl)nc2c1ncn2[C@H]1C[C@H](O)[C@@H](CO)O1 [CLADRIBINE] |  |  | > 30 µM | > 30 µM | > 30 µM | > 30 µM |  | > 30 µM
Clc1ccccc1C(c1ccccc1)(c1ccccc1)n1ccnc1 [CLOTRIMAZOLE] |  | > 10 µM |  |  |  |  |  | > 30 µM
COc1ccc2c3c1O[C@H]1[C@@H](O)CC[C@H]4[C@@H](C2)N(C)CC[C@@]341 [DIHYDROCODEINE] | > 30 µM |  |  |  |  |  |  | > 30 µM
NC(=O)OCC(COC(N)=O)c1ccccc1 [FELBAMATE] | > 10 µM | > 10 µM | > 10 µM | > 10 µM | > 10 µM | > 10 µM | > 10 µM | 
Fc1ccc(C(c2ccccc2)(c2ccccc2F)n2ccnc2)cc1 (configuration not stated) [FLUTRIMAZOLE] | > 30 µM |  | > 30 µM | > 30 µM | > 30 µM | > 10 µM | 30 µM | 
Cc1c(OCC(F)(F)F)ccnc1C[S+]([O-])c1nc2ccccc2[nH]1 (configuration not stated) [LANSOPRAZOLE] |  |  | 9.67 µM | 24.5 µM |  | > 30 µM | 3.46 µM | 
NC(=O)CN1CC(O)CC1=O (configuration not stated) [OXIRACETAM] | > 30 µM |  | > 30 µM | > 30 µM | > 30 µM | > 30 µM | > 30 µM | > 30 µM
Cc1cc(C(C)(C)C)c(O)c(C)c1CC1=NCCN1 [OXYMETAZOLINE] |  |  |  |  | > 30 µM |  |  | > 30 µM
C[C@H]1COc2c(C3(N)CC3)c(F)cc3c(=O)c(C(=O)O)cn1c23 [PAZUFLOXACIN] | > 10 µM | > 10 µM | > 10 µM | > 10 µM | > 30 µM | > 10 µM | > 10 µM | 
C[C@@H]1O[C@@H](O[C@@H]2C=C3CC[C@@H]4[C@H](CC[C@]5(C)[C@@H](c6ccc(=O)oc6)CC[C@]45O)[C@@]3(C)CC2)[C@H](O)[C@H](O)[C@H]1O [PROSCILLARIDIN] |  |  | > 30 µM | > 30 µM | > 30 µM |  | > 30 µM | > 30 µM
C#C[C@]1(O)CC[C@H]2[C@@H]3[C@H](C)CC4=C(CCC(=O)C4)[C@H]3CC[C@@]21C [TIBOLONE] |  |  | > 30 µM | > 30 µM |  | > 30 µM | > 30 µM | > 30 µM
COc1cccc(C2(O)CCCCC2CN(C)C)c1 (configuration not stated) [TRAMADOL] |  | > 10 µM | > 30 µM | > 30 µM |  | > 30 µM | > 30 µM | > 30 µM
Cc1nnc2n1-c1ccc(Cl)cc1C(c1ccccc1Cl)=NC2 [TRIAZOLAM] | > 10 µM |  | > 30 µM | > 30 µM |  | > 30 µM | > 30 µM | 
CC1(C)CCC(CN2CCN(c3ccc(C(=O)NS(=O)(=O)c4ccc(NCC5CCOCC5)c([N+](=O)[O-])c4)c(Oc4cnc5[nH]ccc5c4)c3)CC2)=C(c2ccc(Cl)cc2)C1 [VENETOCLAX] |  |  |  |  | > 30 µM |  |  | > 30 µM
